# Results taken from US20090023681A1, “METHOD OF USING BETA-GLUCAN FROM SCHIZOPHYLLUM COMMUNE” (priority 2007, published 2009).
# Key:
# Staphylococcus aureus = test: Bacterial inhibition in mouse model, survival after S. aureus septic shock; type: in vivo, mice; conditions: 1 mg/mouse peritoneally 3 days and 1 day prior, 1×10^9 S. aureus intravenously, FIG. 6
# Protocol: Skin is directly vulnerable to or may suffer from single infection with various bacteria and about 90% of atopic patients suffer from secondary infections with bacteria such as Staphylococcus spp. Therefore, there is a need for bacterial inhibition and amelioration of infectious diseases. Prior to the test of skin itching due to bacterial infections, this experiment was carried out to test whether beta-glucan has direct synergistic effects on antibacterial activity and antibiotic activity in vivo, using a mouse model.
# Erythromycin was used as an antibiotic and Staphylococcus aureus, one of staphylococci as a major cause of skin infections, was used as the test bacteria. Each experimental group was composed of 6 to 7 mice per group. Experiments were carried out as follows.
# 1) 3 days and I day prior to bacterial challenge, 1 mg/mouse of saline, antibiotic, beta-glucan, or a beta-glucan/antibiotic mixture was peritoneally injected into mice.
# 2) 30 min prior to bacterial administration, 18 mg/kg of the antibiotic was subcutaneously injected into the mice.
# 3) Then, 1×10^9 of bacteria (S. aureus) were intravenously injected to induce septic shock.
# 4) Finally, a survival rate (%) of the animals was periodically confirmed every 12 hours.
# human skin cells = test: Synthesis of filaggrin by skin cells, Western blotting; type: cell-based; conditions: beta-glucan 0.01%, 2 days treatment, FIG. 4
# Protocol: In order to examine production of a natural moisturizing factor (NMF) having an important effect on skin moisturization, synthesis of filaggrin, which is a precursor of the natural moisturizing factor, was tested on human skin cells. First, skin cells were introduced into a culture flask and allowed to adhere to the bottom of the flask. Then, cells were cultured for 2 days by co-addition of 35-S-methionine upon treatment of a test material. After the cultivation was complete, the culture medium was removed and the cells were dissolved in phosphate buffered saline (PBS) containing 2% sodium dodecyl sulfate and 20 mM dithiothreitol (DTT). After the skin cells were cultured, treatment of the cells with the test material was carried out for 2 days. After the test material treatment was complete, the medium was removed, and only the cells were taken and disrupted using an ultrasonic disintegrator to thereby obtain only a protein. Using the thus-obtained protein, an amount of synthesized filaggrin was determined by Western blotting analysis. FIG. 4 is a graph showing an expression amount of filaggrin by Western blotting analysis. Clofibrate was used as a positive control, and beta-glucan was added to a concentration of 0.01% for the test.
# hairless mice = test: Skin moisture loss (TEWL) recovery after acetone-induced skin barrier damage; type: in vivo
# Protocol: This experiment was carried out to evaluate effects of beta-glucan on recovery of a skin barrier function loss due to long-term skin damage.
# A barrier function of dorsal skin of experimental animals was damaged by periodic application of acetone to the dorsal parts of young hairless mice (10 weeks old) for 3 consecutive days three times a day. Trans-epidermal water loss (TEWL) was measured in the experimental animals. For only the mice having skin with more than 40 g/m′/hr of TEWL, a vehicle (propylene glycol:water=5:5) and a sample containing 0.2% beta-glucan of Example 1 were applied at a dose of 200 μl per 5 cm^2 of a skin area for 3 consecutive days three times a day, and TEWL was measured periodically.
# [1] = at 48 hours after the bacterial infection
# [2] = one week after the bacterial infection
Compound,survival rate (Staphylococcus aureus; [1]),survival rate (Staphylococcus aureus; [2]),synthesis of filaggrin in skin cells (human skin cells),"recovery from skin barrier damage compared to vehicle group (hairless mice; 0.2% beta-glucan of Example 1, 200 μl per 5 cm^2, 3 days three times a day, FIG. 5)","recovery of the trans-epidermal water loss (hairless mice; after 10 hours, 0.2% beta-glucan of Example 1 topical) [%]"
"CC[C@H]1OC(=O)[C@H](C)[C@@H](O[C@H]2C[C@@](C)(OC)[C@@H](O)[C@H](C)O2)[C@H](C)[C@@H](O[C@@H]2O[C@H](C)C[C@H](N(C)C)[C@H]2O)[C@](C)(O)C[C@@H](C)C(=O)[C@H](C)[C@@H](O)[C@]1(C)O [antibiotic, Erythromycin, reference compound]",all killed,all dead,–,–,–
"beta-1,6-branched-beta-1,3-glucan [beta-glucan]",40%,all dead,significantly increased,rapid recovery,≥ 50
